Measured values published in patent US9555039B2, “Piperidine derivatives and compositions for the inhibition of nicotinamide phosphoribosyltransferase (NAMPT)” (Forma TM, LLC., priority 2011, dated 2017).
Where two headings read alike, the source gives them in different places.

Legend:
[1] = target: T1, Recombinant His-tagged NAMPT (Homo sapiens, UniProt P43490); test: Biochemical inhibition assay: NAMPT enzymatic reaction, NMN quantified by mass spectrometry; settings: 33 nM NAMPT, 1 μM NAM, 100 μM PRPP, 30 minutes at room temperature, read-out: Biochem IC50
T1 construct: His; host or cells: E. coli
T1 sequence (P43490 whole entry): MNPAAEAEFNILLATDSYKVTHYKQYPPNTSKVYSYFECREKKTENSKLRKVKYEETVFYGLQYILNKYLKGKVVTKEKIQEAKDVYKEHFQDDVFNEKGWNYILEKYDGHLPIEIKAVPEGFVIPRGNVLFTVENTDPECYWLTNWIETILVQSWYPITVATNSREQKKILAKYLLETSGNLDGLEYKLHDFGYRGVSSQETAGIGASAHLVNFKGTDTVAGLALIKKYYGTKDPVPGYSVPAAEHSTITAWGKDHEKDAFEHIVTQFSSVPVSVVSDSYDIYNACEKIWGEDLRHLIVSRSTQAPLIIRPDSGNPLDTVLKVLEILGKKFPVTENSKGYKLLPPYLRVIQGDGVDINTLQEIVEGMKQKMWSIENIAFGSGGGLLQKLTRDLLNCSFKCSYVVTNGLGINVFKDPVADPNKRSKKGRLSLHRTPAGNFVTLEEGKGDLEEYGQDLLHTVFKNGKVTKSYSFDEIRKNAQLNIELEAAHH
Outline: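 Reaction 30 min at room temperature with 1 μM NAM, 100 μM PRPP, 2.5 mM ATP (final), quenched with formic acid. NMN quantified by RapidFire electrospray MS, normalized to L-cystathionine; IC50 from percent inhibition versus DMSO.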

A2780 cells = test: In-vitro cell proliferation assay (SRB, 72 hours); format: cell-based; settings: sulforhodamine B (SRB) assay
Outline: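 Background from media-only plate subtracted; inhibition relative to DMSO-treated cells, value derived by interpolation between two concentrations.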

Row | Compound | IC50 ([1]; 2.5 mM ATP) [µM] | IC50 (A2780 cells; Homo sapiens) [µM] | IC50 ([1]; […] ATP) [µM] | IC50 (A2780 cells) [µM]
1 | CC(C)c1ncoc1C(=O)N1CCC(CCCCNC(=O)c2cc3cnccc3[nH]2)CC1 [N-[4-(1-{[4-(propan-2-yl)-1,3-oxazol-5-yl]carbonyl}piperidin-4-yl)butyl]-1H-pyrrolo[3,2-c]pyridine-2-carboxamide] | 0.0304 | 0.0053 | – | –
2 | CC(C)c1ncoc1C(=O)N1CCC(CCCCNC(=O)c2ccc3nccn3c2)CC1 [N-[4-(1-{[4-(propan-2-yl)-1,3-oxazol-5-yl]carbonyl}piperidin-4-yl)butyl]imidazo[1,2-a]pyridine-6-carboxamide] | 0.0275 | 0.0082 | – | –
3 | CC(C)Oc1ccc(C(=O)N2CCC(CCCCNC(=O)c3cc4cnccc4[nH]3)CC2)cc1 [N-[4-(1-{[4-(propan-2-yloxy)phenyl]carbonyl}piperidin-4-yl)butyl]-1H-pyrrolo[3,2-c]pyridine-2-carboxamide] | 0.0937 | 0.0131 | – | –
4 | CC(C)Oc1ccc(C(=O)N2CCC(CCCCNC(=O)c3ccc4nccn4c3)CC2)cc1 [N-[4-(1-{[4-(propan-2-yloxy)phenyl]carbonyl}piperidin-4-yl)butyl]imidazo[1,2-a]pyridine-6-carboxamide] | 0.0552 | 0.0209 | – | –
5 | CC(C)Oc1ccc(C(=O)N2CCC(CCCCNC(=O)c3cc4ccncc4s3)CC2)cc1 [N-[4-(1-{[4-(propan-2-yloxy)phenyl]carbonyl}piperidin-4-yl)butyl]thieno[2,3-c]pyridine-2-carboxamide] | 0.04 | 0.1 to 1 | – | –
6 | O=C(NCCCCC1CCN(S(=O)(=O)c2ccc(OC(F)(F)F)cc2)CC1)c1cc2cnccc2[nH]1 [N-[4-(1-{[4-(trifluoromethoxy)benzene]sulfonyl}piperidin-4-yl)butyl]-1H-pyrrolo[3,2-c]pyridine-2-carboxamide] | – | – | 0.076 | 0.0272
7 | O=C(NCCCCC1CCN(C(=O)c2ccc(OC(F)(F)F)cc2)CC1)c1cc2cnccc2[nH]1 [N-[4-(1-{[4-(trifluoromethoxy)phenyl]carbonyl}piperidin-4-yl)butyl]-1H-pyrrolo[3,2-c]pyridine-2-carboxamide] | 0.145 | 0.0127 | – | –
8 | O=C(NCCCCC1CCN(C(=O)c2ccc(OC(F)(F)F)cc2)CC1)c1ccc2nccn2c1 [N-[4-(1-{[4-(trifluoromethoxy)phenyl]carbonyl}piperidin-4-yl)butyl]imidazo[1,2-a]pyridine-6-carboxamide] | 0.091 | 0.1 to 1 | – | –
9 | O=C(NCCCCC1CCN(C(=O)c2ccc(OC(F)(F)F)cc2)CC1)c1cc2ccncc2s1 [N-[4-(1-{[4-(trifluoromethoxy)phenyl]carbonyl}piperidin-4-yl)butyl]thieno[2,3-c]pyridine-2-carboxamide] | 0.166 | 0.1 to 1 | – | –
10 | O=C(NCCCCC1CCN(S(=O)(=O)c2ccc(C(F)(F)F)cc2)CC1)c1cc2cnccc2[nH]1 [N-[4-(1-{[4-(trifluoromethyl)benzene]sulfonyl}piperidin-4-yl)butyl]-1H-pyrrolo[3,2-c]pyridine-2-carboxamide] | 0.0748 | 0.0233 | – | –
11 | O=C(NCCCCC1CCN(C(=O)c2ccc(C(F)(F)F)cc2)CC1)c1cc2cnccc2[nH]1 [N-[4-(1-{[4-(trifluoromethyl)phenyl]carbonyl}piperidin-4-yl)butyl]-1H-pyrrolo[3,2-c]pyridine-2-carboxamide] | 0.164 | 0.0381 | – | –
12 | O=C(NCCCCC1CCN(C(=O)c2ccc(C(F)(F)F)cc2)CC1)c1ccc2nccn2c1 [N-[4-(1-{[4-(trifluoromethyl)phenyl]carbonyl}piperidin-4-yl)butyl]imidazo[1,2-a]pyridine-6-carboxamide] | 0.152 | 0.1 to 1 | – | –
13 | O=C(NCCCCC1CCN(C(=O)c2ccc(C(F)(F)F)cc2)CC1)c1cc2ccncc2s1 [N-[4-(1-{[4-(trifluoromethyl)phenyl]carbonyl}piperidin-4-yl)butyl]thieno[2,3-c]pyridine-2-carboxamide] | 0.305 | 1 | – | –
14 | O=C(NCCCCC1CCN(C(=O)c2cnccc2C(F)(F)F)CC1)c1cc2cnccc2[nH]1 [N-[4-(1-{[4-(trifluoromethyl)pyridin-3-yl]carbonyl}piperidin-4-yl)butyl]-1H-pyrrolo[3,2-c]pyridine-2-carboxamide] | 0.0398 | 0.0029 | – | –
15 | O=C(NCCCCC1CCN(C(=O)c2cnccc2C(F)(F)F)CC1)c1ccc2nccn2c1 [N-[4-(1-{[4-(trifluoromethyl)pyridin-3-yl]carbonyl}piperidin-4-yl)butyl]imidazo[1,2-a]pyridine-6-carboxamide] | 0.0156 | 0.0038 | – | –
16 | O=C(NCCCCC1CCN(C(=O)c2cnccc2C(F)(F)F)CC1)c1cc2ccncc2s1 [N-[4-(1-{[4-(trifluoromethyl)pyridin-3-yl]carbonyl}piperidin-4-yl)butyl]thieno[2,3-c]pyridine-2-carboxamide] | 0.0099 | 0.0069 | – | –

Row | Compound | IC50 ([1]; 2.5 mM ATP) [µM] | IC50 (A2780 cells; Homo sapiens) [µM] | IC50 ([1]; […] ATP) [µM] | IC50 (A2780 cells) [µM]
17 | COCc1ccc(C(=O)N2CCC(CCCCNC(=O)c3cc4cnccc4[nH]3)CC2)nc1 [N-[4-(1-{[5-(methoxymethyl)pyridin-2-yl]carbonyl}piperidin-4-yl)butyl]-1H-pyrrolo[3,2-c]pyridine-2-carboxamide] | 0.0311 | 0.0142 | – | –
18 | COCc1ccc(C(=O)N2CCC(CCCCNC(=O)c3ccc4nccn4c3)CC2)nc1 [N-[4-(1-{[5-(methoxymethyl)pyridin-2-yl]carbonyl}piperidin-4-yl)butyl]imidazo[1,2-a]pyridine-6-carboxamide] | 0.0574 | 0.0671 | – | –
19 | CC(C)c1ccc(C(=O)N2CCC(CCCCNC(=O)c3cc4cnccc4[nH]3)CC2)nc1 [N-[4-(1-{[5-(propan-2-yl)pyridin-2-yl]carbonyl}piperidin-4-yl)butyl]-1H-pyrrolo[3,2-c]pyridine-2-carboxamide] | 0.163 | 0.0141 | – | –
20 | CC(C)c1ccc(C(=O)N2CCC(CCCCNC(=O)c3ccc4nccn4c3)CC2)nc1 [N-[4-(1-{[5-(propan-2-yl)pyridin-2-yl]carbonyl}piperidin-4-yl)butyl]imidazo[1,2-a]pyridine-6-carboxamide] | 0.0567 | 0.0529 | – | –
21 | CC(C)c1ccc(C(=O)N2CCC(CCCCNC(=O)c3cc4ccncc4s3)CC2)nc1 [N-[4-(1-{[5-(propan-2-yl)pyridin-2-yl]carbonyl}piperidin-4-yl)butyl]thieno[2,3-c]pyridine-2-carboxamide] | 0.0898 | 0.1 to 1 | – | –
22 | O=C(NCCCCC1CCN(C(=O)c2ccc(C(F)(F)F)cn2)CC1)c1cc2cnccc2[nH]1 [N-[4-(1-{[5-(trifluoromethyl)pyridin-2-yl]carbonyl}piperidin-4-yl)butyl]-1H-pyrrolo[3,2-c]pyridine-2-carboxamide] | 0.137 | 0.0596 | – | –
23 | O=C(NCCCCC1CCN(C(=O)c2ccc(C(F)(F)F)cn2)CC1)c1cc2ccncc2s1 [N-[4-(1-{[5-(trifluoromethyl)pyridin-2-yl]carbonyl}piperidin-4-yl)butyl]thieno[2,3-c]pyridine-2-carboxamide] | 0.0918 | 0.1 to 1 | – | –
24 | O=C(NCCCCC1CCN(C(=O)c2ccc(N3CCOCC3)nc2)CC1)c1cc2cnccc2[nH]1 [N-[4-(1-{[6-(morpholin-4-yl)pyridin-3-yl]carbonyl}piperidin-4-yl)butyl]-1H-pyrrolo[3,2-c]pyridine-2-carboxamide] | 0.0647 | 0.0034 | – | –
25 | O=C(NCCCCC1CCN(C(=O)c2ccc(N3CCOCC3)nc2)CC1)c1ccc2nccn2c1 [N-[4-(1-{[6-(morpholin-4-yl)pyridin-3-yl]carbonyl}piperidin-4-yl)butyl]imidazo[1,2-a]pyridine-6-carboxamide] | 0.0129 | 0.0059 | – | –
26 | O=C(NCCCCC1CCN(C(=O)c2ccc(N3CCOCC3)nc2)CC1)c1cc2ccncc2s1 [N-[4-(1-{[6-(morpholin-4-yl)pyridin-3-yl]carbonyl}piperidin-4-yl)butyl]thieno[2,3-c]pyridine-2-carboxamide] | 0.0301 | 0.0131 | – | –
27 | CC(C)c1ccc(C(=O)N2CCC(CCCCNC(=O)c3cc4cnccc4[nH]3)CC2)cn1 [N-[4-(1-{[6-(propan-2-yl)pyridin-3-yl]carbonyl}piperidin-4-yl)butyl]-1H-pyrrolo[3,2-c]pyridine-2-carboxamide] | 0.0867 | 0.0132 | – | –
28 | CC(C)c1ccc(C(=O)N2CCC(CCCCNC(=O)c3ccc4nccn4c3)CC2)cn1 [N-[4-(1-{[6-(propan-2-yl)pyridin-3-yl]carbonyl}piperidin-4-yl)butyl]imidazo[1,2-a]pyridine-6-carboxamide] | 0.0387 | 0.0261 | – | –
29 | CC(C)c1ccc(C(=O)N2CCC(CCCCNC(=O)c3cc4ccncc4s3)CC2)cn1 [N-[4-(1-{[6-(propan-2-yl)pyridin-3-yl]carbonyl}piperidin-4-yl)butyl]thieno[2,3-c]pyridine-2-carboxamide] | 0.138 | 0.1 to 1 | – | –
30 | O=C(NCCCCC1CCN(C(=O)c2ccc(C(F)(F)F)nc2)CC1)c1cc2cnccc2[nH]1 [N-[4-(1-{[6-(trifluoromethyl)pyridin-3-yl]carbonyl}piperidin-4-yl)butyl]-1H-pyrrolo[3,2-c]pyridine-2-carboxamide] | 0.278 | 0.0476 | – | –
31 | O=C(NCCCCC1CCN(C(=O)c2ccc(C(F)(F)F)nc2)CC1)c1ccc2nccn2c1 [N-[4-(1-{[6-(trifluoromethyl)pyridin-3-yl]carbonyl}piperidin-4-yl)butyl]imidazo[1,2-a]pyridine-6-carboxamide] | 0.0919 | 0.093 | – | –
32 | O=C(NCCCCC1CCN(C(=O)c2ccc(C(F)(F)F)nc2)CC1)c1cc2ccncc2s1 [N-[4-(1-{[6-(trifluoromethyl)pyridin-3-yl]carbonyl}piperidin-4-yl)butyl]thieno[2,3-c]pyridine-2-carboxamide] | 0.0903 | 0.414 | – | –
